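Cultured in 96-well plates, cells were exposed to test compound for 48 hours across five concentrations. The concentration for 50% growth inhibition is given as GI50. TGI: total growth inhibition.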
What was measured:
Test in all cases: DTP human tumour cell line panel, 48 h
[1] = tested on: SK-MEL-5 melanoma
[2] = tested on: SK-OV-3 ovarian
[3] = tested on: UACC-62 melanoma
[4] = tested on: COLO 205 colon
[5] = tested on: SW-620 colon
[6] = tested on: SF-295 CNS
[7] = tested on: SNB-75 CNS
[8] = tested on: SK-MEL-2 melanoma
[9] = tested on: RXF 393 renal
[10] = tested on: HS 578T breast

Row | SMILES | GI50 [1] [µM] | TGI [1] [µM] | GI50 [2] [µM] | TGI [2] [µM] | GI50 [3] [µM] | TGI [3] [µM] | GI50 [4] [µM] | TGI [4] [µM] | GI50 [5] [µM] | TGI [5] [µM] | GI50 [6] [µM] | TGI [6] [µM] | TGI [7] [µM] | TGI [8] [µM] | TGI [9] [µM] | GI50 [10] [µM] | TGI [10] [µM] | GI50 [7] [µM] | GI50 [8] [µM] | GI50 [9] [µM]
1 | CCCCCCCC(=O)OCC(=O)[C@]1(O)Cc2c(O)c3c(c(O)c2[C@@H](OC2CC(N)C(O)C(C)O2)C1)C(=O)c1c(OC)cccc1C3=O (stereo partly drawn) | 0.0427 | 0.185 | 0.135 | 0.879 | 0.033 | 0.494 | 0.0812 | 0.778 | 0.0403 | 1.15 | 0.0471 | 1.23 | – | – | – | – | – | – | – | –
2 | C/C=C/COC(=O)CO[N+](=O)[O-] | – | – | – | > 100 | – | – | – | > 100 | – | > 100 | – | > 100 | > 100 | > 100 | > 100 | – | – | – | – | –
3 | CCCCCCCCCCCCCC(=O)CSCCNC(=O)CCNC(=O)[C@@H](O)C(C)(C)COP(=O)(O)OP(=O)(O)OCC1OC(n2cnc3c(N)ncnc32)C(O)C1OP(=O)(O)O (stereo partly drawn) | – | 34.5 | – | 27.8 | – | 29.5 | – | 29.4 | – | 55.5 | – | 27.3 | 18.2 | 33.5 | 42.3 | – | – | – | – | –
4 | CN(/N=C/c1cccc2cccnc12)c1c([N+](=O)[O-])cc([N+](=O)[O-])cc1[N+](=O)[O-] | – | > 100 | – | > 100 | – | > 100 | – | > 100 | – | > 100 | – | > 100 | > 100 | > 100 | > 100 | – | – | – | – | –
5 | CCCN(CCC)c1c([N+](=O)[O-])cc(C(=O)N(CCO)CCO)cc1[N+](=O)[O-] | – | > 100 | – | > 100 | – | – | – | > 100 | – | – | – | > 100 | > 100 | > 100 | – | – | – | – | – | –
6 | Cn1c(=O)c2[nH]cnc2n(CC(N)=O)c1=O | – | > 100 | – | > 100 | – | > 100 | – | > 100 | – | > 100 | – | – | > 100 | > 100 | – | – | – | – | – | –
7 | CN(C)CCNC(=O)c1cccc2ccc(-c3ccc(-c4ccccc4)cc3)nc12 | – | 3.1 | – | 31.5 | – | 32.2 | – | 3 | – | 4.74 | – | 4.03 | 6.11 | 32.7 | 6.15 | – | – | – | – | –
8 | N#Cc1ccc2cc3c(cc2c1)OCO3 | – | – | – | > 100 | – | > 100 | – | > 100 | – | – | – | > 100 | 74.3 | > 100 | > 100 | – | – | – | – | –
9 | O=C(CCc1nnc2s/c(=C\c3ccccc3Cl)c(=O)n12)Nc1cc(Cl)ccc1Cl | – | > 100 | – | > 100 | – | > 100 | – | – | – | > 100 | – | > 100 | – | > 100 | > 100 | – | – | – | – | –
10 | CC(=O)N(O)Cc1ccccc1 | – | > 100 | – | > 100 | – | > 100 | – | > 100 | – | > 100 | – | > 100 | > 100 | – | > 100 | – | – | – | – | –
11 | Cc1cn(-c2ccc(S(C)(=O)=O)cc2)c(-c2ccc(Cl)cc2)n1 | > 100 | > 100 | > 100 | > 100 | > 100 | > 100 | > 100 | > 100 | > 100 | > 100 | > 100 | > 100 | > 100 | > 100 | – | > 100 | > 100 | > 100 | > 100 | –
12 | C#CC1(O)CCC2[C@@H]3CCc4cc(Oc5nc(F)nc(-c6c7ccccc7cn6C)n5)ccc4C3CC[C@@]21C (stereo partly drawn) | – | – | – | > 100 | – | > 100 | – | > 100 | – | > 100 | – | > 100 | > 100 | > 100 | > 100 | – | – | – | – | –
13 | O=c1cc(-c2ccccc2)oc2cc(OC/C(=N/O)c3ccc(F)cc3)ccc12 | 8.75 | 21.1 | 47.9 | > 50 | 14.8 | > 50 | 26.1 | > 50 | 48.1 | > 50 | 8.93 | 24.6 | > 50 | > 50 | 40.2 | – | – | > 50 | 20.2 | 14
14 | S=C=NCCc1ccccc1 | – | 1.39 | – | 3.24 | – | 2.52 | – | 3.07 | – | 1.08 | – | 3.47 | 11.8 | 0.928 | 1.42 | – | – | – | – | –
15 | Cc1ccc(C)c(NC(=O)CC2SC(=Nc3ccccc3Cl)NC2=O)c1 (stereo not drawn) | – | > 100 | – | > 100 | – | > 100 | – | > 100 | – | > 100 | – | > 100 | > 100 | > 100 | > 100 | – | – | – | – | –
16 | C=C(C)C(=O)O[C@@H]1C/C(C)=C\[C@H](OC(C)=O)C[C@](C)(O)/C=C2/OC(=O)C(COC(C)=O)=C21 | – | 8.4 | – | 18.7 | – | 2.1 | – | 2.37 | – | 1.93 | – | 23.9 | 16 | 14.1 | – | – | 47 | – | – | –
17 | Cc1nc2sccn2c1C(=O)NC(=O)Nc1ccc(Cl)cc1 | – | > 100 | – | – | – | > 100 | – | > 100 | – | > 100 | – | > 100 | 50.8 | > 100 | > 100 | – | – | – | – | –
18 | O=c1[nH]c(=O)n(C2CC(O)C(CO)O2)cc1C#Cc1ccc(F)cc1 (stereo not drawn) | – | > 100 | – | > 100 | – | > 100 | – | > 100 | – | > 100 | – | > 100 | > 100 | > 100 | – | – | – | – | – | –
19 | CCn1c2c(c3ccccc31)C(c1ccccc1)CC1C(=O)N(c3ccccc3)C(=O)C21 (stereo not drawn) | – | > 100 | – | > 100 | – | > 100 | – | > 100 | – | > 100 | – | > 100 | 59.6 | > 100 | – | – | – | – | – | –
20 | COc1ccc(Cn2cc3c(c2-c2ccccc2)CCc2cnoc2-3)cc1N | 0.0617 | 2.58 | 0.252 | > 100 | 0.182 | > 100 | 1.32 | 4.08 | 0.0779 | > 100 | 0.154 | 3.28 | 0.777 | > 100 | > 100 | – | – | 0.114 | 0.273 | 0.32
21 | Cc1cc(=O)[nH]c(CNC(=O)c2cccc(C(=O)NCc3cc(=O)[nH]c(C)n3)c2)n1 | – | > 100 | – | > 100 | – | > 100 | – | > 100 | – | > 100 | – | > 100 | > 100 | > 100 | > 100 | – | – | – | – | –

From PubChem BioAssay (NCI)
